# ChEMBL document CHEMBL1201862, “PubChem BioAssay data set” (2004)
#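 Step 1: Grow cells in 96-well plates. Step 2: Expose to compound for 48 hours at 5 concentrations. Step 3: Interpolate endpoints linearly; if unreached, use highest concentration. GI50 marks 50% less growth.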 Activity calls are given as the source filed them. Cut-off read from the data, not from the text of the source: active = GI50 up to about 1.1 µM and inactive = higher.
# Legend:
# Experiment in all cases: DTP human tumour cell line panel, 48 h
# [1] = test system: M14
# [2] = test system: MDA-N
# [3] = test system: SF-295
# [4] = test system: Hs-578T
# [5] = test system: CAKI-1
# [6] = test system: A549
# [7] = test system: T47D
# [8] = test system: MDA-MB-435
# [9] = test system: HL-60
# [10] = test system: OVCAR-8
# [11] = test system: SR
# [12] = test system: OVCAR-3
# [13] = test system: SK-OV-3
# [14] = test system: NCI-H522
# [15] = test system: ACHN
# [16] = test system: COLO 205
# [17] = test system: IGROV-1
# [18] = test system: NCI-H226
# [19] = test system: 786-0
# [20] = test system: HCC 2998
# [21] = test system: NCI-H460
# [22] = test system: NCI/ADR-RES
# [23] = test system: HCT-116
# [24] = test system: SF-539
# [25] = test system: HCT-15
# [26] = test system: UO-31
# [27] = test system: RXF 393
# [28] = test system: MDA-MB-231
# [29] = test system: TK-10
# [30] = test system: EKVX
# [31] = test system: MOLT-4
# [32] = test system: UACC-62
# [33] = test system: BT-549
# [34] = test system: NCI-H23
# [35] = test system: LOX IMVI
# [36] = test system: OVCAR-4
# [37] = test system: MCF7
# [38] = test system: SF-268
# [39] = test system: K562
# [40] = test system: SW-620
# [41] = test system: SK-MEL-5
# [42] = test system: SNB-19
# [43] = test system: SK-MEL-2
# [44] = test system: PC-3
# [45] = test system: Malme-3M
# [46] = test system: HOP-62
# [47] = test system: OVCAR-5
# [48] = test system: U-251
# [49] = test system: RPMI-8226
# [50] = test system: KM12
# [51] = test system: CCRF-CEM
# [52] = test system: HOP-92
# [53] = test system: HT-29
# [54] = test system: SK-MEL-28
# [55] = test system: A498
# [56] = test system: SN12C
# [57] = test system: DU-145
# [58] = test system: SNB-75
# [59] = test system: UACC-257
smiles,measurement,setting,value
CC(=O)O[C@H]1C(=O)[C@@]2(C)[C@H]([C@H](OC(=O)c3ccccc3)[C@]3(O)C[C@H](OC(=O)[C@H](O)[C@@H](NC(=O)c4ccccc4)C4CCCCC4)C(C)=C1C3(C)C)[C@]1(OC(C)=O)CO[C@@H]1C[C@@H]2O,GI50,[1],< 0.01 µM (active)
same,GI50,[2],< 0.01 µM (active)
same,GI50,[3],< 0.01 µM (active)
same,GI50,[4],< 0.01 µM (active)
same,GI50,[5],0.409 µM (active)
same,GI50,[6],< 0.0173 µM (active)
same,GI50,[7],< 0.01 µM (active)
same,GI50,[8],< 0.01 µM (active)
same,GI50,[9],< 0.01 µM (active)
same,GI50,[10],< 0.01 µM (active)
same,GI50,[11],< 0.01 µM (active)
same,GI50,[12],< 0.01 µM (active)
same,GI50,[13],< 0.01 µM (active)
same,GI50,[14],< 0.01 µM (active)
same,GI50,[15],0.288 µM (active)
same,GI50,[16],< 0.01 µM (active)
same,GI50,[17],< 0.01 µM (active)
same,GI50,[18],< 0.01 µM (active)
same,GI50,[19],< 0.01 µM (active)
same,GI50,[20],< 0.01 µM (active)
same,GI50,[21],< 0.01 µM (active)
same,GI50,[22],2.96 µM (inactive)
same,GI50,[23],< 0.01 µM (active)
same,GI50,[24],< 0.01 µM (active)
same,GI50,[25],0.12 µM
same,GI50,[26],0.313 µM (active)
same,GI50,[27],< 0.01 µM (active)
same,GI50,[28],< 0.01 µM (active)
same,GI50,[29],0.0352 µM (active)
same,GI50,[30],3 µM (inactive)
same,GI50,[31],< 0.01 µM (active)
same,GI50,[32],< 0.01 µM (active)
same,GI50,[33],0.0143 µM (active)
same,GI50,[34],< 0.01 µM (active)
same,GI50,[35],< 0.01 µM (active)
same,GI50,[36],0.0227 µM (active)
same,GI50,[37],< 0.01 µM (active)
same,GI50,[38],< 0.01 µM (active)
same,GI50,[39],< 0.01 µM (active)
same,GI50,[40],< 0.01 µM (active)
same,GI50,[41],< 0.01 µM (active)
same,GI50,[42],0.013 µM (active)
same,GI50,[43],17.3 µM (inactive)
same,GI50,[44],0.0468 µM (active)
same,GI50,[45],23.6 µM (inactive)
same,GI50,[46],< 0.01 µM (active)
same,GI50,[47],< 0.01 µM (active)
same,GI50,[48],< 0.01 µM (active)
same,GI50,[49],< 0.01 µM (active)
same,GI50,[50],< 0.01 µM (active)
same,GI50,[51],< 0.01 µM (active)
same,GI50,[52],< 0.0174 µM (active)
same,GI50,[53],< 0.01 µM (active)
same,GI50,[54],34.1 µM (inactive)
CCCCC/C=C\C=C\CCCCCCCCC(=O)OC,GI50,[1],> 100 µM (inactive)
same,GI50,[2],> 100 µM (inactive)
same,GI50,[3],> 100 µM (inactive)
same,GI50,[4],> 100 µM (inactive)
same,GI50,[5],> 100 µM (inactive)
same,GI50,[6],> 100 µM (inactive)
same,GI50,[7],> 100 µM (inactive)
same,GI50,[9],> 100 µM (inactive)
same,GI50,[10],> 100 µM (inactive)
same,GI50,[11],> 100 µM (inactive)
same,GI50,[12],> 100 µM (inactive)
same,GI50,[13],> 100 µM (inactive)
same,GI50,[15],> 100 µM (inactive)
same,GI50,[16],> 100 µM (inactive)
same,GI50,[17],> 100 µM (inactive)
same,GI50,[18],> 100 µM (inactive)
same,GI50,[19],> 100 µM (inactive)
same,GI50,[21],> 100 µM (inactive)
same,GI50,[22],> 100 µM (inactive)
same,GI50,[23],> 100 µM (inactive)
same,GI50,[55],> 100 µM (inactive)
same,GI50,[24],> 100 µM (inactive)
same,GI50,[25],> 100 µM
same,GI50,[26],13.9 µM (inactive)
same,GI50,[27],> 100 µM (inactive)
same,GI50,[28],> 100 µM (inactive)
same,GI50,[29],> 100 µM (inactive)
same,GI50,[56],> 100 µM (inactive)
same,GI50,[30],> 100 µM (inactive)
same,GI50,[57],> 100 µM (inactive)
same,GI50,[31],> 100 µM (inactive)
same,GI50,[58],> 100 µM (inactive)
same,GI50,[33],> 100 µM (inactive)
same,GI50,[34],> 100 µM (inactive)
same,GI50,[35],29.8 µM (inactive)
same,GI50,[36],> 100 µM (inactive)
same,GI50,[37],> 100 µM (inactive)
same,GI50,[38],> 100 µM (inactive)
same,GI50,[39],> 100 µM (inactive)
same,GI50,[40],> 100 µM (inactive)
same,GI50,[41],24 µM (inactive)
same,GI50,[42],> 100 µM (inactive)
same,GI50,[43],> 100 µM (inactive)
same,GI50,[44],> 100 µM (inactive)
same,GI50,[45],> 100 µM (inactive)
same,GI50,[46],> 100 µM (inactive)
same,GI50,[47],> 100 µM (inactive)
same,GI50,[48],> 100 µM (inactive)
same,GI50,[49],> 100 µM (inactive)
same,GI50,[59],> 100 µM (inactive)
same,GI50,[50],> 100 µM (inactive)
same,GI50,[52],> 100 µM (inactive)
same,GI50,[53],> 100 µM (inactive)
same,GI50,[54],> 100 µM (inactive)
